Literature values in patent publication US10138221B2, “Salts of nilotinib and polymorphs thereof” (Sun Pharmaceutical Industries Limited, priority 2014, dated 2018).
Where two headings read alike, the source gives them in different places.

Tests used:
[1] = low solubility/low permeability

Biopharmaceutics Classification System (BCS) class (solubility/permeability) [1]: class IV
solubility (acidic media): soluble
solubility (buffer solutions of pH 4.5 and higher): practically insoluble
Compound: Cc1cn(-c2cc(NC(=O)c3ccc(C)c(Nc4nccc(-c5cccnc5)n4)c3)cc(C(F)(F)F)c2)cn1 [Nilotinib, 4-methyl-N-[3-(4-methyl-1H-imidazol-1-yl)-5-(trifluoromethyl)phenyl]-3-[[4-(3-pyridinyl)-2-pyrimidinyl]amino]-benzamide]
